Measured values as given in patent US20250222124A1, “PROTEIN CONJUGATES WITH MULTIPLE PAYLOADS AND METHODS FOR MAKING THE SAME” (GLYCO-THERAPY BIOTECHNOLOGY CO., LTD., priority 2022, published 2025).

System: HpFT-2 (Helicobacter pylori α1,3 fucosyltrasferase)
Assay: Conversion efficiency of α1,3 fucosyltrasferase towards GDP-fucose derivatives with different jointer on the antibodies (LC-MS)
Type: biochemical
Conditions: substrate 1 mM, HpFT-2 0.5 mg/mL
Experimental: Trastuzumab-(GalNAzβ1,4)GlcNAc (2 mg/mL) was incubated with GDP-FAzP4Biotin (1 mM) or GDP-FAmP4Biotin (1 mM) and HpFT-2 (0.5 mg/mL) in 50 mM Tris-HCl buffer (pH 7.5) with 5 mM MgCl2 at 30° C. for 2 hours. […] The reaction mixtures were then quenched by adding LacNAc (final concentration 10 mM) and purified with protein A resin and analyzed by LC-MS respectively.

[1] = antibody Trastuzumab-(Fucα1,6)(Galβ1,4)GlcNAc 2 mg/mL, reaction time 10 min, average MAR/2*100%
[2] = antibody Trastuzumab-(GalNAzβ1,4)GlcNAc 2 mg/mL, reaction time 2 h, average MAR/2*100%
[3] = antibody Trastuzumab-(Galβ1,4)GlcNAc 2 mg/mL, reaction time 10 min, average MAR/2*100%

Row | SMILES | % of conversion [1] | % of conversion [2] | % of conversion [3] | % of conversion (antibody Trastuzumab-G2F 2 mg/mL, reaction time 2 h, average MAR/4*100%)
1 | Nc1nc2c(ncn2[C@@H]2O[C@H](COP(=O)(O)OP(=O)(O)O[C@H]3OC(Cn4cc(COCCOCCOCCOCCNC(=O)CCCC[C@@H]5SC[C@@H]6NC(=O)N[C@@H]65)nn4)[C@@H](O)[C@H](O)C3O)C(O)[C@@H]2O)c(=O)[nH]1 (stereo partly shown) [GDP-FAzP4Biotin] | 30 ± 4.6% | 13 ± 4.7% | 60 ± 0.6% | 9 ± 1.2%
2 | Nc1nc2c(ncn2[C@@H]2O[C@H](COP(=O)(O)OP(=O)(O)O[C@H]3OC(CNC(=O)CCOCCOCCOCCOCCNC(=O)CCCC[C@@H]4SC[C@@H]5NC(=O)N[C@@H]54)[C@@H](O)C(O)C3O)C(O)C2O)c(=O)[nH]1 (stereo partly shown) [GDP-FAmP4Biotin] | 42 ± 5.3% | 77 ± 5.0% | 83 ± 1.2% | 
